Measurements from ChEMBL document CHEMBL1150844, “Isolation and structures of hedaols A, B, and C, new bisnorditerpenes from a Japanese brown alga” (J Nat Prod, 2001).
≈ marks a conversion by molar mass, not a printed value.

These compounds were tested on P388 (assay: Cytotoxicity against mouse P388 cells after 4 days by MTT method). Conditions: P388, 96 h.
Type: functional, cell-based
Compound `CC(C)=CC(=O)/C=C(\C)CCC/C(C)=C/CC[C@@H](C)O` [HEDAOL C] has an IC50 of 50 µg/mL (≈ 180 µM).
`CC(C)=CC(=O)/C=C(/C)CCC/C(C)=C/CC[C@@H](C)O` [HEDAOL A] showed an IC50 of 5.1 µg/mL (≈ 18.3 µM).
`CC(C)=CC(=O)C/C(C)=C/CC/C(C)=C/CC[C@@H](C)O` [HEDAOL B] gave an IC50 of 2.2 µg/mL (≈ 7.9 µM).
